Source: patent publication US5663333A, “Substituted 1,4-diazapine caprolactams useful for treatment of HIV disease” (The DuPont Merck Pharmaceutical Company, priority 1993, dated 1997)

What was measured:
HIV-1 protease = target: T1, HIV-1 protease (Human immunodeficiency virus type 1 group M subtype B, UniProt P04585); experiment: HIV Protease Inhibition Assay - HPLC Method; assay type: biochemical; details: single-chain tethered dimer of HIV protease, pH 5.5
T1 construct: synthetic gene coding for a single-chain tethered dimer of HIV protease; second copy of HIV protease joined in the same chain by a tether (single-chain tethered dimer); made in house
Procedure: Protease: Inclusion bodies of E. coli harboring plasmid containing plasmid T1718R with a synthetic gene coding for a single-chain tethered dimer of HIV protease were prepared as described in Cheng et al. (Proc. Natl. Acad. Sci. USA, 87, 9660-9664, 1990). Active protease was prepared as described therein by extraction with 67% acetic acid, dilution 33-fold with water, dialysis against water and then against a "refolding buffer" consisting of 20 mM MES, 1 mM dithiothreitol and 10% glycerol. Protease was stored as a stock preparation at 10 uM in refolding buffer. […]
HPLC measurement of product formation: The product (aminobenzoyl-Ala--Thr--His--Gln--Val--Tyr) was separated from substrate on a Pharmacia MonoQ anion exchange column. […] Detection with a Shimadzu model RF535 fluorescence monitor was at 330 nm (excitation) and 430 (emission). The Ki was calculated from the formula Ki=I/(((Km+S-FA*S)/(FA*Km))-1) where I=inhibitory concentration, S=substrate concentration, FA=fractional activity=cm peak height with inhibitor/cm peak height without inhibitor, and Km=Michaelis constant=20 uM.
In the Tables herein the Ki values were determined using the assay conditions described above under HIV Protease Inhibition Assay-HPLC Method. […]

[1] = system: HIV(3B) or HIV(RF) in MT-2 cells; experiment: HIV Low Multiplicity Assay (whole cell infectivity assay); assay type: cell-based; details: Human immunodeficiency virus 1, MT2, 168 h, 7 days, XTT, 90% protection from virus induced cell death
Procedure: Materials: MT-2, a human T-Cell line, was cultured in RPMI medium supplemented with 5% (v/v) heat inactivated fetal calf serum (FCS), L-glutamine and gentamycin (GIBCO). Human immunodeficiency virus strains HIV (3B) and HIV (RF) were propagated in H-9 cells in RPMI with 5% FCS. XTT, benzene-sulfonic acid, 3,3'-[1-[(phenyl-amino) carbonyl]-3,4-tetrazolium]bis(4-methoxy-6-nitro)-, sodium salt, was obtained from Starks Associates, Inc.
Method: Test compounds were dissolved in dimethylsulfoxide to 5 mg/ml and serially diluted into RPMI medium to ten times the desired final concentration. MT-2 cells (5×10^4 /0.1 mL) were added to each well of a 96 well culture plate and 0.02 mL of the appropriate test compound solution was added to the cells such that each compound concentration was present in two wells. The cells and compounds were allowed to sit for 30 minutes at room temperature. […] The percentage of cells protected from virus induced cell death was determined by the degree of metabolism of the tetrazolium dye, XTT. In living cells, XTT was metabolized to a colored formazan product which was quantitated spectrophotometrically at 450 nm. […]
In the Tables herein the IC90 values were determined using the assay conditions described above under HIV Low Multiplicity Assay. […]

Row | SMILES | Ki (HIV-1 protease) [nM] | IC90 [1] [µg/mL]
1 | O=C1N[C@H](Cc2ccccc2)[C@H](O)CN(Cc2ccccc2)[C@H]1Cc1ccccc1 [Example 24] | 10 to 1000 | < 10
2 | O=C1N[C@H](Cc2ccccc2)[C@H](O)CN[C@H]1Cc1ccccc1 [Example 1] | < 10 | < 10
